This is an account of results in PMC3431236, “Characterization and optimization of ArtinM lectin expression in Escherichia coli” (BMC Biotechnology, 2012).

In assay [1] the target is T1, rArtinM (recombinant ArtinM) (Artocarpus integer, UniProt Q7M1T4, Q3R).
T1 construct: coding region from cDNA clone pLL29 in pET29a(+) (NdeI/BamHI, stop codon, untagged), E. coli BL21-CodonPlus(DE3)-RP; initiator Met removed, not N-acetylated; unintentional Q3R; monomer (native is tetramer)
In words: affinity chromatography on D-mannose column, eluted with free D-mannose. As to conditions: PBS with 0.5 M NaCl, 4 °C; elution with 0.1 M D-mannose; unintentional Q3R carried by the recombinant protein. The assay is classed as binding.

Assay [2] deals with plant native ArtinM (Artocarpus integrifolia). The assay is described as follows: SEC; analytical size exclusion chromatography on TSK-G2000sw, 50 mM KH2PO4, 300 mM NaCl, pH 7.4; calibrated with thyroglobulin, immunoglobulin G, ovalbumin and myoglobin.

T1 sequence (Q7M1T4 entry or part of it Q3R): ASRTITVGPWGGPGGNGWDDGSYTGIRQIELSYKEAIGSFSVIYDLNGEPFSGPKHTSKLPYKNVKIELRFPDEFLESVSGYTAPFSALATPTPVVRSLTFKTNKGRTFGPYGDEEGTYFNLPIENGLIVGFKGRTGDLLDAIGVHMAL

With `OC[C@H]1OC(O)[C@@H](O)[C@@H](O)[C@@H]1O` (stereo partly drawn) [D-mannose], the “affinity chromatography on D-mannose column, eluted with free D-mannose” value in assay [1] is given as “purified from the E. coli lysate by affinity chromatography on a D-mannose column”.
plant native ArtinM (natural protein) yielded a stoichiometry N in assay [2] of 4.
